Assay results as given in PubChem BioAssay AID248 (DTP/NCI, 2004).
“And” between values parts separate entries of the source, which are not always exact repeats. Equal entries are not always repeated. Inconclusive results and toxic doses are left out. Cut-off read from the data, not from the text of the source: active = T/C of 150% or more; inactive = T/C below 125%.

System: L1210 leukemia ip in BDF1 mice, survival T/C
Assay: NCI In Vivo Anticancer Drug Screen. Data for tumor model L1210 Leukemia (intraperitoneal) in B6D2F1 (BDF1) mice
Details: endpoint: mean survival time, higher = longer survival
How it was run: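 Mice bearing the transplanted tumor received compound or vehicle. Survival of the treated group was divided by that of the vehicle-treated control group to give the ratio.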

[1] = dose: 75.0 mg/kg/injection, schedule: Q01DX001 (ip), vehicle: other
[2] = dose: 150.0 mg/kg/injection, schedule: Q01DX001 (ip), vehicle: other
[3] = dose: 300.0 mg/kg/injection, schedule: Q01DX001 (ip), vehicle: other
[4] = dose: 5.0 mg/kg/injection, schedule: Q01DX001 (ip), vehicle: saline
[5] = dose: 10.0 mg/kg/injection, schedule: Q01DX001 (ip), vehicle: saline
[6] = dose: 20.0 mg/kg/injection, schedule: Q01DX001 (ip), vehicle: saline
[7] = dose: 40.0 mg/kg/injection, schedule: Q01DX001 (ip), vehicle: saline
[8] = dose: 80.0 mg/kg/injection, schedule: Q01DX001 (ip), vehicle: saline
[9] = dose: 100.0 mg/kg/injection, schedule: Q04DX002 (ip), vehicle: Klucel (hydroxypropylcellulose) (HPC)
[10] = dose: 200.0 mg/kg/injection, schedule: Q04DX002 (ip), vehicle: Klucel (hydroxypropylcellulose) (HPC)
[11] = dose: 400.0 mg/kg/injection, schedule: Q04DX002 (ip), vehicle: Klucel (hydroxypropylcellulose) (HPC)
[12] = dose: 100.0 mg/kg/injection, schedule: Q01DX001 (ip), vehicle: saline
[13] = dose: 200.0 mg/kg/injection, schedule: Q01DX001 (ip), vehicle: saline
[14] = dose: 400.0 mg/kg/injection, schedule: Q01DX001 (ip), vehicle: saline
[15] = dose: 75.0 mg/kg/injection, schedule: Q01DX001 (ip), vehicle: carboxymethylcellulose (CMC)
[16] = dose: 150.0 mg/kg/injection, schedule: Q01DX001 (ip), vehicle: carboxymethylcellulose (CMC)
[17] = dose: 300.0 mg/kg/injection, schedule: Q01DX001 (ip), vehicle: carboxymethylcellulose (CMC)

Measured: T/C

NNC12CC3CC(CC(C3)C1)C2
inactive: dose: 1.56 mg/kg/injection, schedule: Q01DX009 (ip), vehicle: saline 100 % of control | dose: 3.12 mg/kg/injection, schedule: Q01DX009 (ip), vehicle: saline 100 % of control | dose: 6.25 mg/kg/injection, schedule: Q01DX009 (ip), vehicle: saline 100 % of control | dose: 12.5 mg/kg/injection, schedule: Q01DX009 (ip), vehicle: saline 110 % of control and 90 % of control | dose: 12.5 mg/kg/injection, schedule: Q04DX003 (ip), vehicle: saline 105 % of control | dose: 25.0 mg/kg/injection, schedule: Q04DX003 (ip), vehicle: saline 118 % of control | dose: 50.0 mg/kg/injection, schedule: Q04DX003 (ip), vehicle: saline 96 % of control

CC(=O)c1ccc(N=Nc2c(N)nc(N)[nH]c2=O)cc1
inactive: dose: 100.0 mg/kg/injection, schedule: Q01DX001 (ip), vehicle: carboxymethylcellulose (CMC) 101 % of control | dose: 200.0 mg/kg/injection, schedule: Q01DX001 (ip), vehicle: carboxymethylcellulose (CMC) 106 % of control | dose: 400.0 mg/kg/injection, schedule: Q01DX001 (ip), vehicle: carboxymethylcellulose (CMC) 119 % of control

CCCCSc1ncnc2nc[nH]c12
inactive: [1] 103 % of control | [2] 95 % of control | [3] 106 % of control

CC1(CCCOc2ccc(NC(=O)CBr)cc2)N=C(N)N=C(N)N1c1ccccc1 (configuration not stated)
inactive: [4] 97 % of control | [5] 92 % of control | [6] 91 % of control | [7] 91 % of control | [8] 87 % of control

OCC(O)C1OC(c2ccccc2)OC1C(O)CO (configuration not stated)
inactive: dose: 100.0 mg/kg/injection, schedule: Q04DX003 (ip), vehicle: saline 105 % of control | dose: 200.0 mg/kg/injection, schedule: Q04DX003 (ip), vehicle: saline 92 % of control | dose: 400.0 mg/kg/injection, schedule: Q04DX003 (ip), vehicle: saline 99 % of control

CCCCCCCCCCCCCCCCCCNC(=O)Nc1ccc(C)c(Cl)c1
inactive: [9] 90 % of control | [10] 93 % of control

CSc1nc2c(c(=O)[nH]1)C1C=C(C)CCC1C(C)(C)C2 (configuration not stated)
inactive: [9] 98 % of control | [10] 96 % of control

Nc1ccc(S(=O)(=O)NCc2nccs2)cc1
inactive: [4] 102 % of control | [5] 100 % of control | [6] 100 % of control | [7] 102 % of control | [8] 100 % of control

CCOC(=O)/C(C#N)=C1\CCC=C(C)C1
inactive: [1] 97 % of control | [2] 102 % of control | [3] 98 % of control

CCOc1cc(OCC)c(OCC)cc1/C=C1\N=C(c2ccccc2)OC1=O
inactive: [9] 96 % of control | [10] 96 % of control | [11] 96 % of control

Nc1ccc(S(=O)(=O)Nc2ccc([N+](=O)[O-])cn2)cc1
inactive: [12] 101 % of control | [13] 104 % of control | [14] 98 % of control

O=C(NNC1CCCCC1)c1ccccc1
inactive: dose: 100.0 mg/kg/injection, schedule: Q04DX003 (ip), vehicle: acetone 107 % of control | dose: 200.0 mg/kg/injection, schedule: Q04DX003 (ip), vehicle: acetone 109 % of control | dose: 400.0 mg/kg/injection, schedule: Q04DX003 (ip), vehicle: acetone 86 % of control

N#C/C(=C1/C(=O)c2ccccc2-c2c1cccc2[N+](=O)[O-])c1ccccc1
inactive: [15] 92 % of control | [16] 94 % of control | [17] 97 % of control

O=S(=O)(O)c1ccc(Cl)c(Cl)c1
inactive: dose: 100.0 mg/kg/injection, schedule: Q04DX002 (ip), vehicle: saline 107 % of control | dose: 200.0 mg/kg/injection, schedule: Q04DX002 (ip), vehicle: saline 100 % of control | dose: 400.0 mg/kg/injection, schedule: Q04DX002 (ip), vehicle: saline 107 % of control

N#Cc1ccc(C#N)cc1
inactive: dose: 100.0 mg/kg/injection, schedule: Q01DX009 (ip), vehicle: saline with Tween-80 97 % of control | dose: 100.0 mg/kg/injection, schedule: Q04DX003 (ip), vehicle: saline with Tween-80 92 % of control and 95 % of control | dose: 200.0 mg/kg/injection, schedule: Q01DX009 (ip), vehicle: saline with Tween-80 104 % of control | dose: 200.0 mg/kg/injection, schedule: Q04DX003 (ip), vehicle: saline with Tween-80 106 % of control and 86 % of control | dose: 400.0 mg/kg/injection, schedule: Q01DX009 (ip), vehicle: saline with Tween-80 115 % of control | dose: 400.0 mg/kg/injection, schedule: Q04DX003 (ip), vehicle: saline with Tween-80 100 % of control and 104 % of control

Cc1ccnc(NS(=O)(=O)c2ccc(NC(=O)c3ccc(C(=O)Nc4ccc(S(=O)(=O)Nc5nccc(C)n5)cc4)cc3)cc2)n1
inactive: dose: 3.87 mg/kg/injection, schedule: Q01DX015 (ip), vehicle: methylcellulose (MC) 96 % of control | dose: 7.75 mg/kg/injection, schedule: Q01DX015 (ip), vehicle: methylcellulose (MC) 101 % of control | dose: 15.5 mg/kg/injection, schedule: Q01DX015 (ip), vehicle: methylcellulose (MC) 104 % of control | dose: 31.0 mg/kg/injection, schedule: Q01DX015 (ip), vehicle: methylcellulose (MC) 104 % of control | dose: 62.0 mg/kg/injection, schedule: Q01DX015 (ip), vehicle: methylcellulose (MC) 94 % of control | dose: 125.0 mg/kg/injection, schedule: Q01DX015 (ip), vehicle: methylcellulose (MC) 101 % of control | dose: 250.0 mg/kg/injection, schedule: Q01DX015 (ip), vehicle: methylcellulose (MC) 100 % of control | dose: 500.0 mg/kg/injection, schedule: Q01DX015 (ip), vehicle: methylcellulose (MC) 102 % of control

Nc1nc(N2CCCCC2)c2nc(Cl)n(C3OC(CO)C(O)C3O)c2n1 (configuration not stated)
inactive: [12] 96 % of control | [13] 94 % of control | [14] 97 % of control

O=C(O)c1cc(Cl)nc(Cl)c1
inactive: dose: 100.0 mg/kg/injection, schedule: Q01DX009 (ip), vehicle: Klucel (hydroxypropylcellulose) (HPC) 97 % of control | dose: 200.0 mg/kg/injection, schedule: Q01DX009 (ip), vehicle: Klucel (hydroxypropylcellulose) (HPC) 88 % of control

O=C(Nc1ccc(S(=O)(=O)F)cc1)/C(=C\c1ccc([N+](=O)[O-])cc1)c1cccc2ccccc12
inactive: dose: 100.0 mg/kg/injection, schedule: Q01DX009 (ip), vehicle: saline 91 % of control | dose: 200.0 mg/kg/injection, schedule: Q01DX009 (ip), vehicle: saline 99 % of control | dose: 400.0 mg/kg/injection, schedule: Q01DX009 (ip), vehicle: saline 94 % of control

CCCN(CCC)CP(=S)(CN(CCC)CCC)CN(CCC)CCC
inactive: [12] 92 % of control | [13] 90 % of control

O=C(Nc1nc2ccccc2[nH]1)c1ccc(C(=O)Nc2nc3ccccc3[nH]2)cc1
inactive: dose: 15.0 mg/kg/injection, schedule: Q01DX Z (ip), vehicle: other 100 % of control | dose: 30.0 mg/kg/injection, schedule: Q01DX Z (ip), vehicle: other 100 % of control | dose: 60.0 mg/kg/injection, schedule: Q01DX Z (ip), vehicle: other 100 % of control | dose: 120.0 mg/kg/injection, schedule: Q01DX Z (ip), vehicle: other 97 % of control | dose: 180.0 mg/kg/injection, schedule: Q01DX Z (ip), vehicle: carboxymethylcellulose (CMC) 102 % of control | dose: 270.0 mg/kg/injection, schedule: Q01DX Z (ip), vehicle: carboxymethylcellulose (CMC) 96 % of control

COC(OC)c1[nH]c(=S)[nH]c(=O)c1Cc1ccccc1Cl
inactive: [9] 97 % of control | [10] 97 % of control | [11] 105 % of control

O=C1C(c2ccccc2)=C(c2ccccc2)C(c2ccccc2)C1c1ccccc1 (configuration not stated)
inactive: dose: 100.0 mg/kg/injection, schedule: Q04DX002 (ip), vehicle: gum acacia 100 % of control | dose: 200.0 mg/kg/injection, schedule: Q04DX002 (ip), vehicle: gum acacia 87 % of control | dose: 400.0 mg/kg/injection, schedule: Q04DX002 (ip), vehicle: gum acacia 90 % of control

ClSSc1c2ccccc2cc2ccccc12
inactive: [15] 91 % of control | [16] 92 % of control | [17] 88 % of control
